# Experimental data as given in PubChem BioAssay (NCI).
# “And” between values parts separate entries of the source, which are not always exact repeats. Identical values can stand only once.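 Where inhibition never reached the appropriate level, the endpoint shown equals the highest concentration tested. Otherwise, values were interpolated linearly from a five-concentration, 48-hour dose response in 96-well plates. GI50 = concentration required for 50% inhibition of growth. TGI: concentration producing complete growth inhibition.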
# Experiments:
# Assay in all cases: NCI tumour cell line growth inhibition, 48 h
# [1] = tested on: DMS 114 small cell lung
# [2] = tested on: LXFL 529 NSCLC
# [3] = tested on: DLD-1 colon
# [4] = tested on: DMS 273 small cell lung
# [5] = tested on: HOP-18 NSCLC
# [6] = tested on: RXF-631 renal
# [7] = tested on: PC-3 prostate
# [8] = tested on: MDA-N
# [9] = tested on: SN12K1 renal
# [10] = tested on: T-47D breast
Compound,TGI [1],TGI [2] [µM],TGI [3],TGI [4],TGI [5] [µM],TGI [6] [µM],other results
O=c1c(O)cc2c(O)oc3c(=O)c(O)c(O)c4c(O)oc1c2c43,67.7 µM,> 100,> 100 µM,> 100 µM,> 100,,
C=C(COC(C)=O)CC(/C=C(\C)CC/C=C(\C)CO)OC(C)=O (stereo not drawn),,> 100,> 100 µM,> 100 µM,,> 100,
C=C1c2[nH]c3ccccc3c2CC(C(=O)O)N1C(O)c1ccc(S(=O)(=O)O)cc1 (stereo not drawn),> 100 µM,> 100,> 100 µM,> 100 µM,,> 100,
O=C([O-])CCc1ccccc1.O=C([O-])CCc1ccccc1.O=C([O-])CCc1ccccc1.O=C([O-])CCc1ccccc1.[Mo+2].[Mo+2],> 100 µM,> 100,> 100 µM,,> 100,,GI50 [1]: > 100 µM; GI50 [2]: > 100 µM; GI50 [3]: > 100 µM; GI50 [5]: > 100 µM
NC(=S)N/N=C(\CCC(=O)Nc1ccccc1[N+](=O)[O-])CC(=O)c1ccco1,> 100 µM,> 100,> 100 µM,> 100 µM,> 100,> 100,
C=CCC12CCC(=O)[C@@]1(C)CC=C(O)C2=O (stereo partly drawn),> 100 µM,> 100,> 100 µM,> 100 µM,> 100,,
CCc1cccc(CC)c1NC(=O)CC1SC(N)=NC1=O (stereo not drawn),> 100 µM,> 100,,> 100 µM,> 100,> 100,
O=c1nc(N2CCCC2)nc(N2CCCC2)s1,> 100 µM,> 100,> 100 µM,> 100 µM,> 100,> 100,
CC(=O)CC(=O)NC=O,> 100 µM,> 100,> 100 µM,> 100 µM,> 100,> 100,
CC(=O)OCC1OC([Se-])C(OC(C)=O)C(OC(C)=O)C1OC(C)=O.N#CCC[PH+](CCC#N)CCC#N.[Au+] (stereo not drawn),,37.3,> 63.6 µM,49.7 µM,46.9,> 100,GI50 [2]: 3.5 µM; GI50 [3]: 7.78 µM; GI50 [4]: 4.09 µM; GI50 [6]: 16 µM; GI50 [5]: 12.6 µM
CC(=O)SC(SC(C)=O)SC(C)=O,> 100 µM,> 100,> 100 µM,> 100 µM,> 100,> 100,
CCC1c2cc3n(c(=O)c2COC1O)Cc1c-3nc2ccccc2c1Cl (stereo not drawn),> 100 µM,> 100,> 100 µM,> 100 µM,> 100,,
COc1cc(C2C(C(=O)O)=C(COC(C)=O)Oc3cc4c(cc32)OCO4)cc(OC)c1OC(C)=O (stereo not drawn),> 100 µM,,> 100 µM,> 100 µM,> 100,> 100,
O=C1NC(=O)C2C1C1C=C3c4ccccc4N(c4ccccc4)C32[C@H]2C(=O)NC(=O)[C@@H]12 (stereo partly drawn),> 100 µM,> 100,> 100 µM,> 100 µM,> 100,,
CCc1nc2ccccc2c(=O)n1/N=C(\N=Nc1ccc(Cl)cc1)c1ccccc1,59.3 µM,50.8,> 100 µM,50 µM,71,,
O=C(O)CCC1CCc2cccc(OCC(=O)O)c2C1=O (stereo not drawn),> 100 µM,> 100,> 100 µM,> 100 µM,> 100,,
CC(C)(CN1CCCCC1)C(=O)CC(SCCN)c1ccc(Cl)cc1 (stereo not drawn),3.43 µM,3.33,3.35 µM,4.96 µM,,14.3,
O=C(O)c1ccc(C(=O)O)c(C(=O)O)c1.[NH-]C1CCCCC1[NH-].[Pt+2],,> 100,> 87.4 µM,9.31 µM,84.6,,GI50 [7]: 4.94 µM; TGI [7]: 59.5 µM; GI50 [2]: 5.94 µM; GI50 [3]: 5.25 µM; GI50 [8]: 1.15 µM; TGI [8]: 24.7 µM; GI50 [4]: 0.417 µM; GI50 [9]: 2.71 µM; TGI [9]: 19 µM; GI50 [10]: 6.58 µM; TGI [10]: 67.2 µM; GI50 [5]: 11.8 µM
CCCCN(CCCC)CC(C(=O)Nc1ccc([N+](=O)[O-])cc1[N+](=O)[O-])/C(C)=N\NC(=O)C[N+](C)(C)C (stereo not drawn),> 100 µM,> 100,> 100 µM,31.2 µM,> 100,> 100,
Cc1ccc(NC(=O)/C(=N\NC(N)=S)C(C#N)c2ccccc2C)cc1C (stereo not drawn),> 100 µM,> 100,> 100 µM,> 100 µM,> 100,> 100,
O=[N+]([O-])c1ccc(/C(Cl)=C/c2ccc(/C=C(\Cl)c3ccc([N+](=O)[O-])cc3[N+](=O)[O-])cc2)c([N+](=O)[O-])c1,> 100 µM,> 100,> 100 µM,> 100 µM,,> 100,
N#CC(/C(=N/NC(N)=S)C(=O)Nc1cccc(Cl)c1)c1ccccc1 (stereo not drawn),> 100 µM,> 100,> 100 µM,> 100 µM,> 100,> 100,
NC(CO)c1ccc(OCc2ccccc2)cc1 (stereo not drawn),> 100 µM,> 100,> 100 µM,> 100 µM,> 100,,
CCOC(=O)Nc1ccc2c(c1)N(C(=O)CCN(CC)CC)c1ccccc1S2,40.6 µM and 99.6 µM,42.5,> 87.6 µM and 105 µM,> 68.8 µM and 77.9 µM,,,GI50 [1]: 36.2 µM; GI50 [3]: 32.9 µM; TGI [9]: 95.3 µM; TGI [10]: 87.9 µM
